According to patent US20140315975A1, “APOPTOSIS-INDUCING AGENT” (NITTO DENKO CORPORATION, priority 2011, published 2014):

Columns and labels:
Assay type in all cases: cell-based
[1] = system: EGFR/PI3K/Akt/mTOR signal cascade; experiment: Western blot of EGFR/PI3K/Akt/mTOR signal; conditions: M7609 cells, compared with Scramble siRNA (FIG. 11)
Description: Expression of each protein constituting the EGFR/PI3K/Akt/mTOR signal cascade was analyzed in the same way as for Example 1 (1), (2), and (4) except that, as primary antibodies, anti-p-EGFR (Tyr1068) antibody (Cell Signaling), anti-EGFR antibody (Santa Cruz), anti-p-PI3K p85 (Tyr458)/p55 (Tyr199) antibody (Cell Signaling), anti-PI3K, p85 antibody (MILLIPORE), anti-p-Akt (Ser473) antibody (Cell Signaling), anti-Akt antibody (Cell Signaling), anti-p-p70S6K (Thr389) antibody (Cell Signaling), anti-p-p70S6K (Thr421/Ser424) antibody (Cell Signaling), and anti-p70S6K antibody (Cell Signaling) were used.

GST-π = experiment: Western blot analysis of GST-π knockdown; conditions: M7609 cells
Description: On the day before transfection, M7609 cells were plated on a 100 mm plastic tissue culture dish using 10% FBS-containing RPMI-1640 medium containing no antibiotic so as to give 1×10^6 cells/10 mL. 600 pmol of GST-π siRNA (SEQ ID No: 1: […], siRNA ID#2385, Ambion) was added to 1 mL of Opti-MEM I Reduced Serum Medium (GIBCO) and mixed gently. Subsequently, 35 μL of Lipofectamine RNAiMAX (Invitrogen) was diluted in 1 mL of Opti-MEM I Reduced Serum Medium and mixed gently. The diluted GST-π siRNA and the diluted Lipofectamine RNAiMAX were combined and gently mixed, and then incubated at room temperature for 10 min. During this time, the medium was replaced with 10 mL of Opti-MEM I Reduced Serum Medium. After the 10 min. incubation, the complex between GST-π siRNA and Lipofectamine RNAiMAX was added to the cells and incubated at 37° C. under an atmosphere containing 5% CO2. After 5 hours incubation, it was replaced with 10 mL of 10% FBS-containing RPMI-1640 medium containing no antibiotic. […] On the 1st, 2nd, 3rd, and 4th days after transfection with GST-π siRNA, the number of cells was counted, and knockdown of GST-π was examined. Knockdown of GST-π was analyzed by a western blot method as described below.
Western blot analysis of GST-π knockdown was carried out using cells harvested at above-mentioned each point of time after transfection with GST-π siRNA. […] The cell extract thus obtained was subjected to quantitative protein analysis using a Micro BCA Protein Assay Kit (Thermo SCIENTIFIC) (GST-π siRNA transfectant: 4.35 μg/μL, Scramble siRNA transfectant: 4.56 μg/μL). […] A reaction with a chemiluminescent substrate was then carried out at room temperature for 1 min., and then this chemiluminescence was detected using an X-ray film. Washing between operations was carried out three times by shaking for 5 min using PBS-T. Furthermore, after transfection with siRNA, plating on a 60 mm plastic tissue culture dish was carried out to give 1.0×10^5 cells/5 mL, and the total cell count in the dish was measured using a hemocytometer up to the 4th day.

M7609 cells = experiment: Autophagy induction by electron microscope examination; conditions: 2 days after transfection, electron microscope (FIG. 7)
Description: On the 1st day after siRNA transfection in Example 1 (2), the cells were plated on an 8-well culture slide for tissue culture so as to give 0.4×10^5 cells/0.5 mL. Fixation was carried out using 2.5% glutaraldehyde in 0.1 M cacodylic acid buffer (pH 7.4) for hour, and after rinsing with 0.1 M cacodylic acid buffer post-fixation was carried out using 1% OsO4 and 1.5% potassium ferrocyanide for 2 hours. After dehydration was carried out three times with ethanol for 10 min., embedding in an epoxy resin (TAAB Laboratories Equipment) was carried out. An ultrathin section was prepared using a diamond knife, electron staining was carried out using uranyl acetate and lead citrate, and the section was examined using an electron microscope (Hitachi Transmission Electron Microscope H-7500, Hitachi High-Technologies Corporation).

Raf-1 = experiment: Immunoprecipitation of Raf-1 and anti-ubiquitin western blot; conditions: M7609 cells
Description: In the same way as for Example 1 (3), on the 2nd day after siRNA transfection culturing was carried out for 16 hours in a serum-free medium, and a cell extract was collected. The cell extract thus obtained was subjected to quantitative protein analysis using a Micro BCA Protein Assay Kit (Scramble siRNA: 8.88 μg/μL, GST-π siRNA: […]). 0.5 μg of the cell extract was mixed with anti-Raf-1 antibody conjugated to Dynabeads Protein G (Invitrogen), incubation was carried out at 4° C. for 2 hours while gently mixing in a shaker to thus isolate Raf-1 protein, and then a western blot analysis was carried out in the same way as for Example 1 (3) using an anti-ubiquitin antibody (Santa Cruz). Phosphorylation modification of Ser621, which is involved in inhibition of Raf-1 proteasome degradation, was investigated in the same manner using an anti-p-Raf-1 (Ser621) antibody (MILLIPORE).

[2] = system: K-RAS mutation-positive colon carcinoma cell line M7609; experiment: Total cell count after siRNA transfection (hemocytometer); conditions: after culturing for 4 days, versus no suppression (FIG. 1b)
Description: K-RAS mutation-positive colon carcinoma cell line M7609 was cultured in 10% fetal bovine serum (FBS)-containing RPMI-1640 medium at 37° C. under an atmosphere containing 5% CO2. Furthermore, 100 U/mL penicillin and 100 μg/mL streptomycin were added as antibiotics to the medium.
On the day before transfection, M7609 cells were plated on a 100 mm plastic tissue culture dish using 10% FBS-containing RPMI-1640 medium containing no antibiotic so as to give 1×10^6 cells/10 mL. 600 pmol of GST-π siRNA (SEQ ID No: 1: […], siRNA ID#2385, Ambion) was added to 1 mL of Opti-MEM I Reduced Serum Medium (GIBCO) and mixed gently. […] On the 1st, 2nd, 3rd, and 4th days after transfection with GST-π siRNA, the number of cells was counted, and knockdown of GST-π was examined. Knockdown of GST-π was analyzed by a western blot method as described below.
Western blot analysis of GST-π knockdown was carried out using cells harvested at above-mentioned each point of time after transfection with GST-π siRNA. […] The cell extract thus obtained was subjected to quantitative protein analysis using a Micro BCA Protein Assay Kit (Thermo SCIENTIFIC) (GST-π siRNA transfectant: 4.35 μg/μL, Scramble siRNA transfectant: 4.56 μg/μL). […] A reaction with a chemiluminescent substrate was then carried out at room temperature for 1 min., and then this chemiluminescence was detected using an X-ray film. […]

GST-π siRNA: GST-π siRNA (SEQ ID No: 1: GGGAGGCAAGACCUUCAUUTT, siRNA ID#2385, Ambion) (chemistry not given here)
phosphorylation of each protein constituting the EGFR/PI3K/Akt/mTOR signal cascade [1]: reduced | expression of GST-π (GST-π; 4 days after transfection (FIG. 1b)): still stably suppressed | expression of GST-π (GST-π; siRNA transfection, western blot (FIG. 1a)): suppressed | autophagosome formation (M7609 cells): autophagosome was formed | ubiquitination of Raf-1 (Raf-1; 2nd day after transfection, compared with Scramble siRNA (FIG. 3)): enhanced | expression of Raf protein and Ser621 phosphorylated Raf protein (p-Raf-1 (S621)) (Raf-1; Raf-1 immunoprecipitate (FIG. 3)): decreased slightly | number of cells [2]: markedly less
